From patent US20250084058A1, “PHENYLPYRAZOLE COMPOUND AND APPLICATION THEREOF” (priority 2022, published 2025)
Read-outs that look alike come from different tables or passages of the source.

Legend:
Type in all cases: in vivo
Mythimna separata = test: Activity determination of killing Mythimna separata (Airbrush spray, corn leaf segments); settings: foliar, dose 1.25 mg/L, 3rd instar larvae, 3rd day after administration, read-out: mortality against Mythimna separata
Method: (§1) The compounds to be tested were dissolved in a mixed solvent of acetone/methanol (1:1) and then diluted to desired concentrations with water containing 0.1% (wt) Tween 80.
(§2) With Mythimna separata and Plutella xylostella as targets, the activity was determined by Airbrush spray method.
Determination method: Corn leaves were cut into leaf segments with the length of 2 cm, the pressure of Airbrush spray treatment is 10 psi (about 0.7 kg/cm^2), and the compounds to be tested were sprayed onto the front and back surfaces of each leaf segment at a liquid amount of 0.5 mL. After drying in the shade, 10 3rd instar larvae were inoculated to each treatment, and each treatment was repeated for 3 times. After the treatment, the larvae were placed in an observation room for culture at 25° C. with relative humidity of 60-70%. On the 3rd day after administration, the number of surviving larvae was investigated, and the mortality was calculated.

Plutella xylostella = test: Activity determination of killing Plutella xylostella (Airbrush spray, cabbage leaf discs); settings: foliar; for mortality at 0.3125 µg/mL: read-out: Mortality (%, on 3rd day after administration) 0.3125 mg/L; for mortality at 0.625 µg/mL: read-out: Mortality (%, on 3rd day after administration) 0.625 mg/L
Method: as §1, §2
Determination method: Cabbage leaves were punched into leaf discs with the diameter of 2 cm by a puncher, the pressure of Airbrush spray treatment is 10 psi (about 0.7 kg/cm^2), and the compounds to be tested were sprayed onto the front and back surfaces of each leaf disc at a liquid amount of 0.5 mL. After drying in the shade, 10 3rd instar larvae were inoculated to each treatment, and each treatment was repeated for 3 times. After the treatment, the larvae were placed in an observation room for culture at 25° C. with relative humidity of 60-70%. On 3rd day after administration, the number of surviving larvae was investigated, and the mortality was calculated.
Some compounds of the present disclosure and control compounds were selected to carry out parallel comparative experiments of the insecticidal activity against Plutella xylostella (on 3rd day after administration), and the determination method was the same as above.

Tetranychus cinnabarinus = test: Greenhouse acaricidal activity on adult acarids of Tetranychus cinnabarinus (spraying of Phaseolus vulgaris seedlings); settings: dose 1.25 mg/L, after 72 h, read-out: mortality against adult acarids of Tetranychus cinnabarinus
Method: According to the solubility of the compounds to be tested, the compounds to be tested were dissolved in acetone or dimethyl sulfoxide and prepared into 50 mL of solutions to be tested at desired concentrations with a 0.1% Tween 80 solution, where the content of the acetone or dimethyl sulfoxide in the solutions was not higher than 10%.
Two true leaves of Phaseolus vulgaris seedlings were taken, and 30-40 adult acarids of Tetranychus cinnabarinus were inoculated. After the cardinal number was investigated, the whole plants were subjected to spraying treatment with a hand-held sprayer, each treatment was repeated for 3 times, and the plants were placed in a standard observation room after the treatment. The number of surviving acarids was investigated after 72 h, and the mortality was calculated.

Ctenocephalides felis = test: Insecticidal test on Ctenocephalides felis (compound film in culture dish); settings: 1 μg/cm^2; adult Ctenocephalides felis; after 72 h; 25° C.; read-out: insect mortality (Ctenocephalides felis)
Method: 4 mg of compounds to be tested were dissolved in 40 mL of acetone to obtain acetone solutions with a concentration of 100 mg/L. Bottom surfaces and side surfaces of culture dishes with an inner diameter of 5.3 cm were coated with 400 μL of the drug solutions, and when the acetone was volatilized, films of the compounds of the present disclosure were prepared on inner walls of the culture dishes. The inner walls of the culture dishes used were 40 cm^2, and a dose of the treatment drugs was 1 μg/cm^2. 10 adult Ctenocephalides felis (males and females were mixed) were placed in the culture dishes, and the culture dishes were covered and then stored in a constant-temperature room at 25° C. The number of dead insects was checked after 72 h, and the insect mortality was calculated. The test was repeated for 3 times. Test results: The insect mortality of compounds 1, 2, 3, 4, 5, 11, 12, 18, 32, 33, 34, 46, 60, 74, 88, 99, 101, 102, 104, 105, 108, 109, 110, 111, 113 and 114 is 70% or above.

Dermacentor variabilis = test: Insecticidal test on Dermacentor variabilis (compound film in culture dish); settings: 1 μg/cm^2, 1st nymphs, after 24 h, 25° C., read-out: insect mortality (Dermacentor variabilis)
Method: 4 mg of compounds to be tested were dissolved in 40 mL of acetone to obtain acetone solutions with a concentration of 100 mg/L. Bottom surfaces and side surfaces of 2 culture dishes with an inner diameter of 5.3 cm were coated with 400 μL of the drug solutions, and when the acetone was volatilized, films of the compounds of the present disclosure were prepared on inner walls of the culture dishes. The inner walls of the culture dishes used were 40 cm^2, and a dose of the treatment drugs was 1 μg/cm^2. 10 1st nymphs of Dermacentor variabilis (males and females were mixed) were placed in the culture dishes. The 2 culture dishes were combined, sealed with tape at a junction portion to prevent escape of the nymphs, and then stored in a constant-temperature room at 25° C. The number of dead insects was checked after 24 h, and the insect mortality was calculated. The test was repeated for 3 times. Test results: The insect mortality of compounds 1, 2, 3, 4, 5, 11, 12, 18, 32, 33, 34, 46, 60, 74, 88, 99, 101, 102, 104, 105, 108, 109, 110, 111, 113 and 114 is 70% or above.

[1] = 0.3125 mg/L, parallel comparative experiment, 3rd day after administration
[2] = 0.625 mg/L, parallel comparative experiment, 3rd day after administration
[3] = 1.25 mg/L, parallel comparative experiment, 3rd day after administration, read-out: Mortality (%, on 3rd day after administration) 1.25 mg/L
[4] = dose 1.25 mg/L, 3rd instar larvae, 3rd day after administration, read-out: mortality against Plutella xylostella
[5] = read-out: Mortality (%, on 3rd day after administration) 1.25 mg/L

Row | SMILES | mortality at 1.25 µg/mL (Mythimna separata) | mortality at 0.3125 µg/mL (Plutella xylostella; [1]) | mortality at 0.625 µg/mL (Plutella xylostella; [2]) | mortality at 1.25 µg/mL (Plutella xylostella; [3]) | mortality at 1.25 µg/mL (Plutella xylostella; [4]) | mortality at 1.25 µg/mL (Tetranychus cinnabarinus) | mortality at 1 µg/cm2 (Ctenocephalides felis) | mortality at 1 µg/cm2 (Dermacentor variabilis) | mortality at 0.3125 µg/mL (Plutella xylostella) | mortality at 0.625 µg/mL (Plutella xylostella) | mortality at 1.25 µg/mL (Plutella xylostella; [5])
1 | N#CCN(C(=O)c1cc(-c2cnn(-c3c(Cl)cc(C(F)(C(F)(F)F)C(F)(F)F)cc3Cl)c2)cnc1Cl)C1CC1 [Compound 4] | ≥ 90% | 100% | 100% | 100% | ≥ 90% | ≥ 90% | ≥ 70% | ≥ 70% |  |  | 
2 | C=CCN(C(=O)c1cc(-c2cnn(-c3c(Cl)cc(C(F)(C(F)(F)F)C(F)(F)F)cc3Cl)c2)cnc1Cl)C1CC1 [Compound 1] | ≥ 90% | 93.3% | 100% | 100% | ≥ 90% | ≥ 90% | ≥ 70% | ≥ 70% |  |  | 
3 | CCCC(=O)N(C(=O)c1cc(-c2cnn(-c3c(Cl)cc(C(F)(C(F)(F)F)C(F)(F)F)cc3Cl)c2)cnc1Cl)C1CC1 [Compound 101] | ≥ 90% |  |  |  | ≥ 90% | ≥ 90% | ≥ 70% | ≥ 70% |  |  | 
4 | CCCC(=O)N(C(=O)c1cc(-c2cnn(-c3c(Cl)cc(C(F)(C(F)(F)F)C(F)(F)F)cc3Cl)c2)cnc1Cl)C1(C#N)CC1 [Compound 110] | ≥ 90% |  |  |  | ≥ 90% | ≥ 90% | ≥ 70% | ≥ 70% |  |  | 
5 | CC(C)C(=O)N(C(=O)c1cc(-c2cnn(-c3c(Cl)cc(C(F)(C(F)(F)F)C(F)(F)F)cc3Cl)c2)cnc1Cl)C1(C#N)CC1 [Compound 111] | ≥ 90% |  |  |  | ≥ 90% | ≥ 90% | ≥ 70% | ≥ 70% |  |  | 
6 | N#CCN(C(=O)c1cc(-c2cnn(-c3c(Cl)cc(C(F)(C(F)(F)F)C(F)(F)F)cc3Cl)c2)cnc1Cl)C1(C#N)CC1 [Compound 11] | ≥ 90% | 100% | 100% | 100% | ≥ 90% | ≥ 90% | ≥ 70% | ≥ 70% |  |  | 
7 | N#CCN(C(=O)c1cc(-c2cnn(-c3c(Cl)cc(C(F)(C(F)(F)F)C(F)(F)F)cc3Br)c2)cnc1Cl)C1CC1 [Compound 32] | ≥ 90% |  |  |  | ≥ 90% | ≥ 90% | ≥ 70% | ≥ 70% |  |  | 
8 | COCC(=O)N(C(=O)c1cc(-c2cnn(-c3c(Cl)cc(C(F)(C(F)(F)F)C(F)(F)F)cc3Cl)c2)cnc1Cl)C1CC1 [Compound 105] | ≥ 90% | 100% | 100% | 100% | ≥ 90% | ≥ 90% | ≥ 70% | ≥ 70% |  |  | 
9 | N#CCCCN(C(=O)c1cc(-c2cnn(-c3c(Cl)cc(C(F)(C(F)(F)F)C(F)(F)F)cc3Br)c2)cnc1Cl)C1CC1 [Compound 34] | ≥ 90% |  |  |  | ≥ 90% | ≥ 90% | ≥ 70% | ≥ 70% |  |  | 
10 | O=C(c1cc(-c2cnn(-c3c(Cl)cc(C(F)(C(F)(F)F)C(F)(F)F)cc3Cl)c2)cnc1Cl)N(C(=O)C1CC1)C1CC1 [Compound 104] | ≥ 90% | 100% | 100% | 100% | ≥ 90% | ≥ 90% | ≥ 70% | ≥ 70% |  |  | 
11 | N#CCN(C(=O)c1cc(-c2cnn(-c3c(Br)cc(C(F)(C(F)(F)F)C(F)(F)F)cc3Br)c2)cnc1Cl)C1CC1 [Compound 18] | ≥ 90% |  |  |  | ≥ 90% | ≥ 90% | ≥ 70% | ≥ 70% |  |  | 
12 | O=C(c1cc(-c2cnn(-c3c(Cl)cc(C(F)(C(F)(F)F)C(F)(F)F)cc3Cl)c2)cnc1Cl)N(CC1CC1)C1CC1 [Compound 3] | ≥ 90% | 76.7% | 100% | 100% | ≥ 90% | ≥ 90% | ≥ 70% | ≥ 70% |  |  | 
13 | C#CCN(C(=O)c1cc(-c2cnn(-c3c(Cl)cc(C(F)(C(F)(F)F)C(F)(F)F)cc3Cl)c2)cnc1Cl)C1CC1 [Compound 2] | ≥ 90% | 90% | 100% | 100% | ≥ 90% | ≥ 90% | ≥ 70% | ≥ 70% |  |  | 
14 | N#CCN(C(=O)c1cc(-c2cnn(-c3c(Cl)cc(C(F)(C(F)(F)F)C(F)(F)F)cc3C(F)(F)F)c2)cnc1Cl)C1CC1 [Compound 60] | ≥ 90% |  |  |  | ≥ 90% | ≥ 90% | ≥ 70% | ≥ 70% |  |  | 
15 | CN(C(=O)c1cc(-c2cnn(-c3c(Cl)cc(C(F)(C(F)(F)F)C(F)(F)F)cc3Cl)c2)cnc1Cl)C1(C#N)CC1 [CK4, reference compound] |  |  |  |  |  |  |  |  | 20% | 56.7% | 90%
16 | CN(C(=O)c1cc(-c2cnn(-c3c(Cl)cc(C(F)(C(F)(F)F)C(F)(F)F)cc3Cl)c2)cnc1Cl)C1CC1 [CK2, reference compound] |  |  |  |  |  |  |  |  | 13.3% | 60% | 93.3%
17 | O=C(NC1CC1)c1cc(-c2cnn(-c3c(Cl)cc(C(F)(C(F)(F)F)C(F)(F)F)cc3Cl)c2)cnc1Cl [CK1, reference compound] |  | 20% | 66.7% | 100% |  |  |  |  |  |  | 
18 | N#CC1(NC(=O)c2cc(-c3cnn(-c4c(Cl)cc(C(F)(C(F)(F)F)C(F)(F)F)cc4Cl)c3)cnc2Cl)CC1 [CK3, reference compound] |  |  |  |  |  |  |  |  | 30% | 60% | 100%
